Reference: patent US7786141B2 (Vertex Pharmaceuticals Incorporated, priority 2004, dated 2010)
Like-named read-outs stand apart in the source and are kept apart here.

What was measured:
M1 muscarinic receptor = molecular target: T1, M1 muscarinic receptor (Homo sapiens, UniProt P11229); assay: Functional mobilization of intracellular calcium (FLIPR) in M1-CHO cells; assay type: cell-based
T1 construct: expressed in transfected cells; host or cells: CHO (M1-CHO)
T1 sequence (P11229 1-460): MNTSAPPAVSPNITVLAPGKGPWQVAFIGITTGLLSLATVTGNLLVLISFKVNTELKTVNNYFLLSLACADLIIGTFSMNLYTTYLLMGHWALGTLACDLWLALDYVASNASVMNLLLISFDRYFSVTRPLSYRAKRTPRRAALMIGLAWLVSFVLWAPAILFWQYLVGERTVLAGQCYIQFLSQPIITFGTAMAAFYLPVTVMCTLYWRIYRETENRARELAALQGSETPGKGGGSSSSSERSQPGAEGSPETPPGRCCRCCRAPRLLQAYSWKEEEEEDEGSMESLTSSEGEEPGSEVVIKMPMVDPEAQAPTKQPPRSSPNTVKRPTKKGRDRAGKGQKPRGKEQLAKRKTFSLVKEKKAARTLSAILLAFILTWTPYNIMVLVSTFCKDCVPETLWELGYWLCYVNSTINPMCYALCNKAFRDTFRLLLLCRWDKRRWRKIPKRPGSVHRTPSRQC
How it was run: (§1)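 Measured via Fluo-3 fluorescence on a FLIPR, CHO cells with either muscarinic subtype received compound in 0.5% DMSO. Antagonism was assessed after 15 min pre-incubation followed by carbachol at each subtype's EC80; agonism from compound addition alone.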

M4 muscarinic receptor = molecular target: T2, M4 muscarinic receptor (Homo sapiens, UniProt P08173); assay: Functional mobilization of intracellular calcium (FLIPR) in M4-CHO cells; assay type: cell-based
T2 construct: expressed in transfected cells; host or cells: CHO (M4-CHO)
T2 sequence (P08173 1-479): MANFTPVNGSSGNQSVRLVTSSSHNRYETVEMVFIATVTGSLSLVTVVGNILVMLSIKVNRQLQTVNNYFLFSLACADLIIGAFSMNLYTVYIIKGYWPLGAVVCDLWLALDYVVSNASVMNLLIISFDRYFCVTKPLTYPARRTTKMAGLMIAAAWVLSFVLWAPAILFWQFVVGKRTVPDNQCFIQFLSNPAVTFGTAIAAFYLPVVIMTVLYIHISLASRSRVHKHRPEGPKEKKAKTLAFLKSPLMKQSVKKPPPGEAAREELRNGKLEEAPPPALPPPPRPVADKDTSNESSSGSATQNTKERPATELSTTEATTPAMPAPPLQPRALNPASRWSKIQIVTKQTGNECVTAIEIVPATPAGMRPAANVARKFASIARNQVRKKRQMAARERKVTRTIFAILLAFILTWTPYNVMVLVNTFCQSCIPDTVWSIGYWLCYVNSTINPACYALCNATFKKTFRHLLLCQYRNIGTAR
How it was run: as §1

[1] = Table 4, 100% efficacy is the maximum response obtained with the Carbachol control
[2] = Table 4, M1 receptor, calcium mobilization (FLIPR)
[3] = Table 4, M4 receptor, calcium mobilization (FLIPR)
[4] = M1 receptor, calcium mobilization
[5] = M1 receptor, calcium mobilization, read-out: M1 Efficacy
[6] = M4 receptor, calcium mobilization
[7] = M4 receptor, calcium mobilization, read-out: M4 Efficacy
[8] = Table 4, modulating M1 receptor
[9] = Table 4, modulating M4 receptor
[10] = 100% efficacy is the maximum response obtained with the Carbachol control, Table 5
[11] = M1-CHO cells, calcium mobilization (FLIPR)
[12] = M1-CHO cells, calcium mobilization (FLIPR), read-out: M1 Efficacy
[13] = M4-CHO cells, calcium mobilization (FLIPR)
[14] = M4-CHO cells, calcium mobilization (FLIPR), read-out: M4 Efficacy

SMILES | Emax (M1 muscarinic receptor; [1]) [%] | Emax (M4 muscarinic receptor; [1]) [%] | M1 Activity (M1 muscarinic receptor; [8]) | M4 Activity (M4 muscarinic receptor; [9]) | also measured
CN(C)C(=O)NC1CCC2(CCN(CCC3CC4CCC3C4)CC2)c2ccccc21 (stereo not drawn) [compound 1010] | < 25 | < 25 | – | – | M1 Activity (M1 muscarinic receptor; [2]): x (activity was measured to be greater than 5.0 μM); M4 Activity (M4 muscarinic receptor; [3]): x (activity was measured to be greater than 5.0 μM)
Fc1ccc2c(c1)C1(CCN(C[C@H]3C[C@H]4CC[C@H]3O4)CC1)CN2 [compound 300] | – | – | – | – | M1 Activity (M1 muscarinic receptor; [4]): xx (activity was measured to be between 0.1 μM and 1.0 μM); Emax (M1 muscarinic receptor; [5]): 65 to 85%; M4 Activity (M4 muscarinic receptor; [6]): x (activity was measured to be greater than 1.0 μM); Emax (M4 muscarinic receptor; [7]): < 65%
COCCOC(=O)N1C2CCC1CC(N1CCC3(CC1)CN(C(=O)C1CC1)c1ccc(F)cc13)C2 (stereo not drawn) [compound 311] | – | – | – | – | M1 Activity (M1 muscarinic receptor; [4]): xxx (activity was measured to be less than 0.1 μM); Emax (M1 muscarinic receptor; [5]): 65 to 85%; M4 Activity (M4 muscarinic receptor; [6]): x (activity was measured to be greater than 1.0 μM); Emax (M4 muscarinic receptor; [7]): 65 to 85%
CCCN1CC2(CCN(C3CCN(C(=O)OCC)CC3)CC2)c2cc(F)ccc21 [compound 469] | 25 to 100 | 25 to 100 | xxx (activity was measured to be less than 2.0 μM) | xxx (activity was measured to be less than 2.0 μM) | –
CCOC(=O)N1CCC(N2CCC3(CC2)CN(C(=O)C(C)(C)C)c2ccc(F)cc23)CC1 [compound 282] | – | – | – | – | M1 Activity (M1 muscarinic receptor; [4]): xxx (activity was measured to be less than 0.1 μM); Emax (M1 muscarinic receptor; [5]): < 65%; M4 Activity (M4 muscarinic receptor; [6]): xx (activity was measured to be between 0.1 μM and 1.0 μM); Emax (M4 muscarinic receptor; [7]): 65 to 85%
O=C(N[C@H]1CC2(CCN(C3C[C@H]4CC[C@@H]3C4)CC2)c2ccccc21)N1CCCCC1 (stereo partly drawn) [compound 525] | < 25 | 25 to 100 | x (activity was measured to be greater than 5.0 μM) | xxx (activity was measured to be less than 2.0 μM) | –
CCOC(=O)N1CCC(CN2CCCC3(CC2)CN(C(C)=O)c2ccc(F)cc23)CC1 (stereo not drawn) [compound 1003] | 25 to 100 | 25 to 100 | – | – | M1 Activity (M1 muscarinic receptor; [2]): xxx (activity was measured to be less than 2.0 μM); M4 Activity (M4 muscarinic receptor; [3]): xxx (activity was measured to be less than 2.0 μM)
CN(C)C(=O)N1CC2(CCN(C3CCN(c4cnccn4)CC3)CC2)c2cc(F)ccc21 [compound 1031] | – | – | – | – | Emax (M1 muscarinic receptor; [10]): 25 to 100%; EC50 (M1 muscarinic receptor; CHO cells expressing M1, calcium mobilization, Table 5): < 2000 nM; Emax (M4 muscarinic receptor; [10]): 25 to 100%; EC50 (M4 muscarinic receptor; CHO cells expressing M4, calcium mobilization, Table 5): < 2000 nM
CCN(CC)C(=O)N[C@H]1CC2(CCN(C3CC4CC[C@@H]3C4)CC2)c2ccccc21 (stereo partly drawn) [compound 755] | < 25 | 25 to 100 | x (activity was measured to be greater than 5.0 μM) | xxx (activity was measured to be less than 2.0 μM) | –
CCOC(=O)N1CCC(N2CCC3(CC2)CN(C(=O)c2ccccc2F)c2ccc(F)cc23)CC1 [compound 267] | – | – | – | – | M1 Activity (M1 muscarinic receptor; [4]): x (activity was measured to be greater than 1.0 μM); Emax (M1 muscarinic receptor; [5]): < 65%; M4 Activity (M4 muscarinic receptor; [6]): x (activity was measured to be greater than 1.0 μM); Emax (M4 muscarinic receptor; [7]): < 65%
CCOC(=O)N1CCC(CN2CCC3(CC2)C[C@H](NC(C)=O)c2ccccc23)CC1 [compound 250] | – | – | – | – | M1 Activity (M1 muscarinic receptor; [4]): xx (activity was measured to be between 0.1 μM and 1.0 μM); Emax (M1 muscarinic receptor; [5]): 65 to 85%; M4 Activity (M4 muscarinic receptor; [6]): x (activity was measured to be greater than 1.0 μM); Emax (M4 muscarinic receptor; [7]): 65 to 85%
CCOC(=O)N1CCC(N2CCC3(CC2)CN(C(=O)NCc2ccccc2)c2ccccc23)CC1 [compound 712] | 25 to 100 | 25 to 100 | xxx (activity was measured to be less than 2.0 μM) | xxx (activity was measured to be less than 2.0 μM) | –
CCOC(=O)N1CCC(N2CCC3(CC2)CN(C(=O)C(=O)CC)c2ccc(F)cc23)CC1 [compound 522] | > 100 | 25 to 100 | xxx (activity was measured to be less than 2.0 μM) | xxx (activity was measured to be less than 2.0 μM) | –
CN(C)C(=O)N1CC2(CCN(C3CCN(C(=O)c4ccccc4F)CC3)CC2)c2cc(F)ccc21 [compound 887] | 25 to 100 | < 25 | – | – | M1 Activity (M1 muscarinic receptor; [2]): xx (activity was measured to be between 2.0 μM and 5.0 μM); M4 Activity (M4 muscarinic receptor; [3]): x (activity was measured to be greater than 5.0 μM)
Cc1ccc2c(c1)C1(CCN(C3CC4CCC(C4)C3)CC1)CN2 (stereo not drawn) [compound 397] | – | – | – | – | EC50 (M1 muscarinic receptor; [11]): 100 to 1000 nM; Emax (M1 muscarinic receptor; [12]): 65 to 85%; EC50 (M4 muscarinic receptor; [13]): > 1000 nM; Emax (M4 muscarinic receptor; [14]): < 65%
CC(=O)N1CC2(CCN(C3CCN(c4nc5ccccc5s4)CC3)CC2)c2ccccc21 [compound 545] | < 25 | < 25 | x (activity was measured to be greater than 5.0 μM) | x (activity was measured to be greater than 5.0 μM) | –
CC(=O)N1CC2(CCN(C3CCN(c4cncc(-c5ccccc5C)n4)CC3)CC2)c2ccccc21 [compound 678] | 25 to 100 | < 25 | xxx (activity was measured to be less than 2.0 μM) | x (activity was measured to be greater than 5.0 μM) | –
CCOC(=O)N1CCC(N2CCC3(CC2)CN(C(C)=O)c2c(-c4ccc(C(C)=O)cc4)cccc23)CC1 [compound 491] | 25 to 100 | < 25 | xx (activity was measured to be between 2.0 μM and 5.0 μM) | xx (activity was measured to be between 2.0 μM and 5.0 μM) | –
CCOC(=O)N1CCC(CN2CCC3(CC2)CN(C(C)=O)c2c(C)cc(C)cc23)CC1 [compound 869] | 25 to 100 | 25 to 100 | – | – | M1 Activity (M1 muscarinic receptor; [2]): xx (activity was measured to be between 2.0 μM and 5.0 μM); M4 Activity (M4 muscarinic receptor; [3]): xxx (activity was measured to be less than 2.0 μM)
CC(C)OC(=O)N1C2CCC1CC(N1CCC3(CC1)CN(C(=O)OC1CCC1)c1ccc(F)cc13)C2 (stereo not drawn) [compound 166] | – | – | – | – | M1 Activity (M1 muscarinic receptor; [4]): xxx (activity was measured to be less than 0.1 μM); Emax (M1 muscarinic receptor; [5]): > 85%; M4 Activity (M4 muscarinic receptor; [6]): x (activity was measured to be greater than 1.0 μM); Emax (M4 muscarinic receptor; [7]): > 85%
CC#CC(C)OC(=O)N1CCC(N2CCC3(CC2)CN(C(=O)N(C)C)c2ccc(F)cc23)CC1 (stereo not drawn) [compound 614] | 25 to 100 | 25 to 100 | xxx (activity was measured to be less than 2.0 μM) | xxx (activity was measured to be less than 2.0 μM) | –
CC(=O)N[C@H]1CCC2(CCN(CC3CCC3)CC2)c2ccccc21 [compound 636] | 25 to 100 | 25 to 100 | xxx (activity was measured to be less than 2.0 μM) | xxx (activity was measured to be less than 2.0 μM) | –
CCCC#CCOC(=O)N1CC[C@H](CN2CCC3(CC2)CN(C(=O)N(C)C)c2ccc(F)cc23)C1 [compound 981] | 25 to 100 | 25 to 100 | – | – | M1 Activity (M1 muscarinic receptor; [2]): xxx (activity was measured to be less than 2.0 μM); M4 Activity (M4 muscarinic receptor; [3]): xxx (activity was measured to be less than 2.0 μM)
CC(=O)N(C)[C@H]1CC2(CCN(C[C@H]3C[C@H]4CC[C@H]3C4)CC2)c2ccccc21 [compound 190] | – | – | – | – | M1 Activity (M1 muscarinic receptor; [4]): x (activity was measured to be greater than 1.0 μM); Emax (M1 muscarinic receptor; [5]): > 85%; M4 Activity (M4 muscarinic receptor; [6]): x (activity was measured to be greater than 1.0 μM); Emax (M4 muscarinic receptor; [7]): 65 to 85%
COCCN1CC2(CCN(C3CCN(C(=O)OCCF)CC3)CC2)c2cc(F)ccc21 [compound 460] | 25 to 100 | 25 to 100 | xxx (activity was measured to be less than 2.0 μM) | xxx (activity was measured to be less than 2.0 μM) | –
CN(C)C(=O)N1CC2(CCN(C3CCN(C(=O)c4ccco4)CC3)CC2)c2cc(F)ccc21 [compound 435] | 25 to 100 | 25 to 100 | xxx (activity was measured to be less than 2.0 μM) | xxx (activity was measured to be less than 2.0 μM) | –
CCOC(=O)N1C2CCC1CC(N1CCC3(CC1)CN(C(=O)OC1CCC1)c1ccc(F)cc13)C2 (stereo not drawn) [compound 409] | – | – | – | – | EC50 (M1 muscarinic receptor; [11]): < 100 nM; Emax (M1 muscarinic receptor; [12]): > 85%; EC50 (M4 muscarinic receptor; [13]): < 100 nM; Emax (M4 muscarinic receptor; [14]): > 85%
